In the NIST ThermoML archive (doi:10.1016/j.jct.2013.02.004):
Numbers after ± are expanded uncertainties.

Assay: activity coefficient (dimensionless); of the first substance listed, at infinite dilution; xn = mol fraction of the nth substance listed
Conditions: 101 kPa, Liquid, Chromatography, x1 = 0

activity coefficient (328.15 K)	activity coefficient (338.15 K)	activity coefficient (348.15 K)	activity coefficient (358.15 K)	activity coefficient (368.15 K)	activity coefficient (308.15 K)	activity coefficient (318.15 K)	SMILES
1.23 ± 0.08	1.25 ± 0.08	1.27 ± 0.08	1.28 ± 0.08	1.31 ± 0.09	–	–	C1COCCO1 [1,4-dioxane] + CCCCCC[n+]1ccc2ccccc2c1.N#C[S-]
46.3 ± 3.2	44.2 ± 3	42.5 ± 2.9	40.5 ± 2.8	39.1 ± 2.7	50.6 ± 3.5	48.1 ± 3.3	C=CCCCCCCCC [1-decene] + CCCCCC[n+]1ccc2ccccc2c1.N#C[S-]
20.9 ± 1.4	19.5 ± 1.3	18.7 ± 1.3	17.7 ± 1.2	16.9 ± 1.2	23.5 ± 1.6	22 ± 1.5	C=CCCCCC [1-heptene] + CCCCCC[n+]1ccc2ccccc2c1.N#C[S-]
4.93 ± 0.34	5.02 ± 0.34	5.09 ± 0.35	5.16 ± 0.35	5.21 ± 0.36	4.77 ± 0.33	4.85 ± 0.33	C#CCCCCC [1-heptyne] + CCCCCC[n+]1ccc2ccccc2c1.N#C[S-]
2.91 ± 0.2	2.97 ± 0.2	3.03 ± 0.21	3.07 ± 0.21	3.14 ± 0.21	2.79 ± 0.19	2.85 ± 0.19	C#CCCC [1-pentyne] + CCCCCC[n+]1ccc2ccccc2c1.N#C[S-]
68.6 ± 4.7	57.7 ± 4	50.8 ± 3.5	44.5 ± 3	39.1 ± 2.7	96.5 ± 6.6	79.7 ± 5.5	CC(C)CC(C)(C)C [2,2,4-trimethylpentane] + CCCCCC[n+]1ccc2ccccc2c1.N#C[S-]
57.2 ± 3.9	45.5 ± 3.1	37.9 ± 2.6	31.2 ± 2.1	25.6 ± 1.8	91.5 ± 6.3	72.2 ± 4.9	CCC(C)(C)C [2,2-dimethylbutane] + CCCCCC[n+]1ccc2ccccc2c1.N#C[S-]
17.2 ± 1.2	15.7 ± 1.1	14.7 ± 1	13.8 ± 0.9	12.8 ± 0.9	20.6 ± 1.4	18.6 ± 1.3	CCOC(C)(C)C [2-ethoxy-2-methylpropane] + CCCCCC[n+]1ccc2ccccc2c1.N#C[S-]
2.86 ± 0.19	2.88 ± 0.2	2.89 ± 0.2	2.9 ± 0.2	2.91 ± 0.2	–	–	CCCC(=O)CC [3-hexanone] + CCCCCC[n+]1ccc2ccccc2c1.N#C[S-]
37.8 ± 2.6	31.9 ± 2.2	27.9 ± 1.9	24.7 ± 1.7	21.5 ± 1.5	52.3 ± 3.6	43.4 ± 3	CCC(C)CC [3-methylpentane] + CCCCCC[n+]1ccc2ccccc2c1.N#C[S-]
13.3 ± 0.9	12.4 ± 0.8	11.6 ± 0.8	10.8 ± 0.7	10.2 ± 0.7	15.4 ± 1.1	14.2 ± 1	C1CCCCC1 [cyclohexane] + CCCCCC[n+]1ccc2ccccc2c1.N#C[S-]

Further lines, the compound ahead of its results:

SMILES	activity coefficient (328.15 K)	activity coefficient (338.15 K)	activity coefficient (348.15 K)	activity coefficient (358.15 K)	activity coefficient (368.15 K)	activity coefficient (308.15 K)	activity coefficient (318.15 K)
Cc1ccccc1C [1,2-dimethylbenzene] + CCCCCC[n+]1ccc2ccccc2c1.N#C[S-]	2.35 ± 0.16	2.37 ± 0.16	2.41 ± 0.16	2.43 ± 0.17	2.45 ± 0.17	–	–
Cc1cccc(C)c1 [1,3-dimethylbenzene] + CCCCCC[n+]1ccc2ccccc2c1.N#C[S-]	2.9 ± 0.2	2.93 ± 0.2	2.96 ± 0.2	2.98 ± 0.2	3.01 ± 0.2	–	–
Cc1ccc(C)cc1 [1,4-dimethylbenzene] + CCCCCC[n+]1ccc2ccccc2c1.N#C[S-]	2.82 ± 0.19	2.85 ± 0.19	2.88 ± 0.2	2.9 ± 0.2	2.94 ± 0.2	–	–
C#CCCCC [1-hexyne] + CCCCCC[n+]1ccc2ccccc2c1.N#C[S-]	3.71 ± 0.25	3.78 ± 0.26	3.83 ± 0.26	3.9 ± 0.27	3.96 ± 0.27	3.57 ± 0.24	3.64 ± 0.25
CCC[N+](=O)[O-] [1-nitropropane] + CCCCCC[n+]1ccc2ccccc2c1.N#C[S-]	1.39 ± 0.09	1.38 ± 0.09	1.37 ± 0.09	1.37 ± 0.09	1.35 ± 0.09	–	–
C#CCCCCCC [1-octyne] + CCCCCC[n+]1ccc2ccccc2c1.N#C[S-]	6.52 ± 0.44	6.64 ± 0.45	6.71 ± 0.46	6.8 ± 0.46	6.87 ± 0.47	6.31 ± 0.43	6.43 ± 0.44
C=CCCC [1-pentene] + CCCCCC[n+]1ccc2ccccc2c1.N#C[S-]	14.5 ± 1	12.9 ± 0.9	11.7 ± 0.8	10.7 ± 0.7	9.6 ± 0.7	18.4 ± 1.3	16.2 ± 1.1
CCCCC(C)=O [2-hexanone] + CCCCCC[n+]1ccc2ccccc2c1.N#C[S-]	2.62 ± 0.18	2.63 ± 0.18	2.64 ± 0.18	2.65 ± 0.18	2.65 ± 0.18	–	–
CCC(C)(C)OC [2-methoxy-2-methylbutane] + CCCCCC[n+]1ccc2ccccc2c1.N#C[S-]	9.01 ± 0.61	8.58 ± 0.59	8.36 ± 0.57	8.13 ± 0.55	7.85 ± 0.54	9.8 ± 0.67	9.34 ± 0.64
COC(C)(C)C [2-methoxy-2-methylpropane] + CCCCCC[n+]1ccc2ccccc2c1.N#C[S-]	7.65 ± 0.52	7.18 ± 0.49	6.99 ± 0.48	6.61 ± 0.45	6.28 ± 0.43	8.61 ± 0.59	8.13 ± 0.55
CC(C)=O [acetone] + CCCCCC[n+]1ccc2ccccc2c1.N#C[S-]	1.33 ± 0.09	1.31 ± 0.09	1.3 ± 0.08	1.3 ± 0.08	1.28 ± 0.08	–	–
CC#N [acetonitrile] + CCCCCC[n+]1ccc2ccccc2c1.N#C[S-]	1.02 ± 0.06	1.01 ± 0.06	1 ± 0.06	0.994 ± 0.062	0.982 ± 0.062	–	–
c1ccccc1 [benzene] + CCCCCC[n+]1ccc2ccccc2c1.N#C[S-]	1.47 ± 0.1	1.48 ± 0.1	1.48 ± 0.1	1.48 ± 0.1	1.49 ± 0.1	–	–
CCCCO [butan-1-ol] + CCCCCC[n+]1ccc2ccccc2c1.N#C[S-]	0.846 ± 0.054	0.829 ± 0.053	0.812 ± 0.053	0.802 ± 0.052	0.788 ± 0.051	–	–
C1CCCCCC1 [cycloheptane] + CCCCCC[n+]1ccc2ccccc2c1.N#C[S-]	14.5 ± 1	13.4 ± 0.9	12.6 ± 0.9	11.9 ± 0.8	11.3 ± 0.8	17 ± 1.2	15.8 ± 1.1
